# Publication PMC9667546, “Selective Inhibition of Bruton’s Tyrosine Kinase by a Designed Covalent Ligand Leads to Potent Therapeutic Efficacy in Blood Cancers Relative to Clinically Used Inhibitors” (ACS Pharmacology & Translational Science, 2022)
# Read-outs that look alike come from different tables or passages of the source.
# Columns and labels:
# BMX [1] = biological target: T1, BMX (Homo sapiens, UniProt P51813); test: NanoBRET in-cell target engagement, BMX; type: binding
# T1 construct: host or cells: HEK296T (so in the source)
# T1 sequence (P51813 1-675): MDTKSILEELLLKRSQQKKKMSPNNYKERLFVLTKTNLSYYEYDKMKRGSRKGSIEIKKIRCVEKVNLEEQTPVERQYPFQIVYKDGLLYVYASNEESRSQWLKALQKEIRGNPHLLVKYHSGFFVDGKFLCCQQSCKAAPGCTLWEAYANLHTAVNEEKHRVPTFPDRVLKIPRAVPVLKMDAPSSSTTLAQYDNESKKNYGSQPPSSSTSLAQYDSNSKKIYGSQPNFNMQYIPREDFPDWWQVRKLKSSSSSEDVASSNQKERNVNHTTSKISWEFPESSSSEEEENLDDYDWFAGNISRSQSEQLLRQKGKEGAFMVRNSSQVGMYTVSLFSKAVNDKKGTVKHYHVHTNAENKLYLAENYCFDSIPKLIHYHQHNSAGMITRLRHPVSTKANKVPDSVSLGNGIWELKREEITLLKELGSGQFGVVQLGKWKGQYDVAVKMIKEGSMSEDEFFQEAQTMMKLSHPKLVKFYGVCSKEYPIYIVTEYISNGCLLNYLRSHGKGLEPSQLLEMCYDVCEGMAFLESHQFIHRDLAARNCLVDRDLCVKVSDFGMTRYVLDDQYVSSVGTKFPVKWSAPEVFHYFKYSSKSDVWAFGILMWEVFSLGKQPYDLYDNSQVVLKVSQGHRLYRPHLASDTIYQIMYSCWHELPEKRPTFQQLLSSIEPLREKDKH
# Procedure: (§1) In-cell target engagement was performed at Reaction Biology Corporation, using NanoBRET technology. Very briefly, HEK296T cells were transfected and treated in duplicate with JS25 for 1 h of incubation. The compound was diluted 10 times with 3-fold dilution, starting at 1 μM. Curve fits were performed only when the % NanoBret signal at the highest concentration of compounds was less than 55%. The IC50 values were determined using GraphPad Prism 8 ([…]).
# JAK3 = biological target: T2, JAK3 (Homo sapiens, UniProt P52333); test: NanoBRET in-cell target engagement, JAK3; type: binding; conditions: HEK296T cells, 1 h incubation, average of duplicates
# T2 construct: host or cells: HEK296T (so in the source)
# Procedure: as §1
# Raji cells (BL) = test: Cell viability assay (CellTiter-Glo), Raji; type: cell-based; conditions: Homo sapiens, 72 h, n = 3
# Procedure: (§2) All cell lines were purchased from ATCC, except for DoHH-2 cells that were obtained from DSMZ. Cells were cultivated in complete DMEM supplemented with 10% (vol/vol) FBS (Gibco) and 1% of penicillin/streptomycin (Gibco). The cells were grown in a humidified atmosphere of 5% CO2 at 37°C, with the medium changed every other day.
# (§3) Cells were inoculated at a density of 5000 cells/well. Serially diluted compounds (starting at 50 μM) were added 24 h later. The assay was performed in triplicates. After 72 h of incubation, cellular viability was assessed by CellTiter-Glo (Promega) according to the manufacturer’s instructions. The values were normalized with the vehicle (DMSO), and the IC50 was calculated using GraphPad Prism 8.
# DoHH-2 cells (DLBCL) = test: Cell viability assay (CellTiter-Glo), DoHH-2; type: cell-based; conditions: Homo sapiens, 72 h, n = 3
# Procedure: as §2, §3
# JURKAT cells = test: Cell viability assay (CellTiter-Glo), JURKAT; type: cell-based; conditions: Homo sapiens, 72 h, n = 3
# Procedure: as §2, §3
# BMX [2] = biological target: T1, BMX; conditions: first value of 3.5/49 in Table S3; ref SI 20; read-out: IC50, BMX, earlier value of JS25; cited from earlier work
# BTK [3] = biological target: T3, BTK (Homo sapiens, UniProt Q06187); test: NanoBRET in-cell target engagement, BTK; type: binding; design: purchased Promega Corporation V2941
# Procedure: as §1
# BTK [4] = biological target: T3, BTK; design: purchased Promega Corporation V2941; conditions: first value of 5.8/28 in Table S3; ref 23 (SI ref 20); read-out: IC50 (potency against BTK), earlier value of JS25; cited from earlier work
# BTK [5] = biological target: T3, BTK; test: BTK degradation in Raji cells (Western blot); type: cell-based; design: endogenous in cells; host or cells: Raji cells (Burkitt's lymphoma); conditions: 10 μM
# Procedure: Raji cells were inoculated at 0.5 × 10^6 cells/mL, and JS25 was added at a final concentration of 10 μM. At 0, 4, and 15 h of incubation, the cells were harvested, and the pellets were resuspended in lysis buffer (20 mM Tris–HCl, 150 mM NaCl, pH 8.0, 0.1% Triton X-100), supplemented with EDTA-free Protease Inhibitor Cocktail (Merck) and DNase I (Merck). The protein concentration was determined using the Pierce BCA Protein Assay Kit (Thermo Scientific). Western blot was performed with rabbit BTK antibody (1:1000; 3533, Cell Signaling Technology), mouse α-Tubulin antibody (1:5000; 5168, Merck), goat anti-rabbit IgG (H + L) secondary antibody HRP (1:7000; 65-6120, Invitrogen), and goat anti-mouse IgG (H + L) secondary antibody HRP (1:5000; 2-6520, Invitrogen).
# T3 sequence (Q06187 whole entry): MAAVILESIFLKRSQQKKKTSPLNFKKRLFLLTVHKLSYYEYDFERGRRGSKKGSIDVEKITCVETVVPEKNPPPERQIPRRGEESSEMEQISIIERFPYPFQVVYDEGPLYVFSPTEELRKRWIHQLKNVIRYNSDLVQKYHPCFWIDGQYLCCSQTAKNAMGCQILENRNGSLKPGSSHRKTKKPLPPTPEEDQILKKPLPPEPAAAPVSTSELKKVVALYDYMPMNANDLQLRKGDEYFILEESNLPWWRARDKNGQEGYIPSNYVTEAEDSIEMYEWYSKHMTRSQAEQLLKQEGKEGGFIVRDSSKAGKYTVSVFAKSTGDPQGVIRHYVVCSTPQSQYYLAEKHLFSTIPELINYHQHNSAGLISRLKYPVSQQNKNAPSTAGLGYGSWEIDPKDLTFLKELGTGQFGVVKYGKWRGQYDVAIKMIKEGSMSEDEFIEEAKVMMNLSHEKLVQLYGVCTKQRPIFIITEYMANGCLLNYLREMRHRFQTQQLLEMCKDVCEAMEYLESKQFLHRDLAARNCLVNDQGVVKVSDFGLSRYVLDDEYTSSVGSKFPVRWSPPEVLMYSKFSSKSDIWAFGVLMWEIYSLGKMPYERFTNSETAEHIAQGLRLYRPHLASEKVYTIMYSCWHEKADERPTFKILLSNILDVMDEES
# T2 sequence (P52333 whole entry): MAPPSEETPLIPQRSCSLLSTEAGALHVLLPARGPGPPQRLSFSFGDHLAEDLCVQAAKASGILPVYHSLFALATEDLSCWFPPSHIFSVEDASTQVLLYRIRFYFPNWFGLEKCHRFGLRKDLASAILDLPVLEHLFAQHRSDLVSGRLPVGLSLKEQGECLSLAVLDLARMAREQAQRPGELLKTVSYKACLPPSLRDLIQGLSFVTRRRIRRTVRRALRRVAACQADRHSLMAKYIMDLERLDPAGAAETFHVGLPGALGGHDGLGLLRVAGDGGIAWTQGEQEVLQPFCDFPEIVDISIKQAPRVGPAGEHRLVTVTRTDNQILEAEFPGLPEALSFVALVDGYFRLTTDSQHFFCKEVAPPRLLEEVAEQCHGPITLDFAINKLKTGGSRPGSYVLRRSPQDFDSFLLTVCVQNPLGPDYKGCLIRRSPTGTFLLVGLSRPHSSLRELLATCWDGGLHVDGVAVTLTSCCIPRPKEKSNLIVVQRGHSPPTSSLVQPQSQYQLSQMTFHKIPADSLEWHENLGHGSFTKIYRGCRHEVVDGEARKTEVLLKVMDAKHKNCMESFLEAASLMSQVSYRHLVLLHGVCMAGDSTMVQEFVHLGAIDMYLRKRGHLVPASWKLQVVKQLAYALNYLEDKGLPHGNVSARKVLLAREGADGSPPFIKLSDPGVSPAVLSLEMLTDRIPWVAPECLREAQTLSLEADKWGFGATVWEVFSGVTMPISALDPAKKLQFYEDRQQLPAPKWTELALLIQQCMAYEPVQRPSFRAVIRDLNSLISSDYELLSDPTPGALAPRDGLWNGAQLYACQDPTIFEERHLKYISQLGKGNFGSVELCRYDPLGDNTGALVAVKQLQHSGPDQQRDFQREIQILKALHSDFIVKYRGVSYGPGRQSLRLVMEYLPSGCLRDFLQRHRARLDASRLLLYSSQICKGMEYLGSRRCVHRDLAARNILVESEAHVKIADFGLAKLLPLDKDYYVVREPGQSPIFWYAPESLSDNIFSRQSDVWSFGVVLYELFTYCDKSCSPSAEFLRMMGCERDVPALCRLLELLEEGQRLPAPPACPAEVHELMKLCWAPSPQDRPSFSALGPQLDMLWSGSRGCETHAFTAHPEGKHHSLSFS
compound,measurement,setting,value
C=CC(=O)Nc1cc(C)cc(-n2c(=O)ccc3cnc4ccc(-c5ccc(NS(C)(=O)=O)cc5)cc4c32)c1 [JS25],selectivity toward BTK relative to BMX,BMX [1],~2 fold
same,IC50,"BMX [1]; HEK296T cells, 1 h incubation, average of duplicates",49 nM
same,"selectivity (kinase/BTK), BMX",BMX [1]; IC50 kinase/IC50 BTK,1.7
same,IC50,JAK3,> 3000 nM
same,IC50,Raji cells (BL),2300 nM
same,IC50,DoHH-2 cells (DLBCL),520 ± 20 nM
same,IC50,JURKAT cells,38400 ± 70 nM
same,IC50,BMX [2],3.5 nM
same,IC50,"BTK [3]; HEK296T cells, 1 h incubation, average of duplicates, read-out: IC50 (M), BTK",2.85e-08 M
same,"selectivity (kinase/BTK), BTK",BTK [3]; IC50 kinase/IC50 BTK,1
same,IC50,"BTK [3]; NanoBRET value as given in text and Table S3, read-out: IC50, BTK",2.8e-08 M
same,IC50,BTK [4],5.8 nM
same,BTK degradation,BTK [5]; 4 h,evident
same,BTK degradation,BTK [5]; 15 h,almost completed
